One compound from patent publication US10842892B2, “Methods and apparatus for synthesizing imaging agents, and intermediates thereof” (Lantheus Medical Imaging, Inc., priority 2010, dated 2020) can be followed below.

In data set [1] the test system is myocardial ischemia. The experiment in a line: imaging agent 1 and ^82Rb PET versus ^99mTc sestamibi SPECT, perfusion defect assessment (phase II). The data set is classed as in vivo, human. Here is the method: Twenty-six patients (20 men) who underwent ^99mTc sestamibi SPECT and imaging agent 1 PET within 6 months at a single center in a phase II clinical trial were compared to 23 patients (matched by summed difference score (SDS) on SPECT) who underwent ^99mTc sestamibi SPECT and ^82Rb PET (25-50 mCi) within 6 months without change in clinical state. PET was performed with imaging agent 1 at rest (2.3-3.9 mCi) followed 60 min or 24 h later with exercise or adenosine stress (7.3-8.6 mCi). Perfusion defects on SPECT and PET were assessed by computer-assisted visual interpretation, using the standard 17 segment, 5 point-scoring model (0=normal; 4=absent uptake). The extent and severity of ischemia (SDS) was derived from the difference between summed stress score (SSS) and summed rest scores (SRS).
Twenty six patients (20 men) underwent SPECT and PET within 6-months. PET was performed with imaging agent 1 at rest (2.3-3.9 mCi) followed 60 min (n=18) or 24 h (n=8) later with exercise (n=16) or adenosine (n=10) stress (7.3-8.6 mCi). Image quality of SPECT and PET was consensually assessed by 2 independent blinded readers and graded as excellent, good, or fair. Stress and rest perfusion defects on SPECT and PET were assessed by the same readers by computer-assisted visual interpretation, using the standard 17 segment, 5 point-scoring model (0=normal; 4=absent uptake). The extent and severity of ischemia (summed difference score (SDS)) was derived from the difference between summed stress (SSS) and summed rest scores (SRS). Image quality with PET was excellent in 24 and good in 2 patients. In contrast, there were 7 excellent, 18 good, and 1 fair quality study, p<0.001 by SPECT. In 14 patients with abnormal SPECT (SSS≥4), mean SDS was greater with PET than with SPECT (9.6±1.8 vs. 5.4±0.7, p=0.02). In all 12 patients with normal SPECT (SSS<4), SDS was zero by PET and SPECT.

In data set [2] the test system is healthy adults. The experiment in a line: clinical safety evaluation after single dose at rest. It counts as in vivo, human. The following applies: 13 healthy adults. How it is done:
This was a non-randomized, open-label, single-dose study. A total of 13 healthy adult subjects were enrolled and administered a single dose of imaging agent 1 at a single study center in the United States. Subjects were screened within 14 days prior to enrollment to confirm subject eligibility, and began baseline assessments at the study center the day before study drug administration. Subjects remained at the study center until completion of the Study Day 2 safety assessments (24±8 hours post-dose). A telephone call was made to study subjects 48±8 hours post-dose for adverse event (AE) monitoring. All subjects returned to the study center approximately one week (5-7 days) post-dose for a follow-up safety visit, and were contacted by telephone approximately 14-17 days post-dose for final serious AE monitoring.

Data set [3] concerns viable left ventricle. Kind of data set: left ventricular viability after myocardial infarction, imaging agent 1 versus FDG. It counts as in vivo, rat. Here is the method:
MI was induced in rats by 30 minutes of\ coronary occlusion followed reperfusion. […] Viable left ventricle was quantified in images as the volume with ≥50% of maximum activity.

The test system of data set [4] is coronary artery disease (CAD). Kind of data set: Phase 2 diagnostic performance for coronary artery disease, PET versus SPECT. It counts as in vivo, human. From the text:
143 patients (Pts) from 21 centers, presenting with a broad spectrum of CAD pre-test likelihoods, underwent rest-stress Tc-99m labeled SPECT MPI and imaging agent 1 PET MPI. […] Their mean age was 64.5 (range: 36-85) years and 68 were males. % narrowing in each coronary artery was quantified blindly. 52/84 Pts had significant CAD (≥50% luminal diameter narrowing) and 32/84 had insignificant CAD/normal coronary arteries. In each patient, 17 myocardial segments were visually scored on rest and stress images by 3 independent, blinded readers and majority rule interpretation was determined in each patient for both PET and SPECT studies. Diagnostic performance of PET was compared to that of SPECT using ROC analysis.

Data set [5] is described as follows: syringe component adsorption of imaging agent 1. It counts as physicochemical. The settings on record: B&D syringe, three hours. How it is done:
To further identify the contact surface material that contributed to syringe retention of imaging agent 1, three additional B&D syringes were each filled with a 1 mL solution of imaging agent 1 then maintained at ambient temperature and humidity for a period of three hours. Following transfer of the individual doses as described in Example 1, the syringe barrel and butyl rubber tip plunger were then separated, measured for retained radioactivity and decay corrected. The difference in percent retained activity is statistically significant at the 95% confidence level (i.e. Prob>|t| 0.0017).

Structures are written as SMILES. Several values for one entry are separate records, joined by “and”; a condition that tells them apart may be missing. Equal values may be shown once.

Take `CC(C)(C)n1ncc(OCc2ccc(COCC[18F])cc2)c(Cl)c1=O` [imaging agent 1, 2-t-butyl-4-chloro-5-[4-(2-(^18F)fluoroethoxymethyl)-benzyloxy]-2H-pyridazin-3-1]: the SDS entry in data set [1] (12 patients with normal SPECT (SSS<4)) is listed as “zero”. The “mean SDS (summed difference score)” value in data set [1] (14 patients with abnormal SPECT (SSS≥4)) is given as 9.6±1.8. Also, in data set [1] (26 patients, 2 blinded readers), the “image quality excellent, number of patients” value is given as 24 and the “image quality good, number of patients” value is listed as 2. Moreover, the “differences in SDS, PET compared to SPECT” value in data set [1] (patients with normal SPECT (SSS<4)) is “no differences”. In data set [2], the “changes from baseline in vital signs, laboratory values, ECGs and EEGs” value is listed as “not clinically significant”; the “potential cardiotoxicity (coagulation studies, Troponin-T levels)” value is listed as “not exhibited”; the tolerability entry was “well-tolerated and no clinically significant safety concerns were raised”. In data set [3] (control rats before surgery), this compound registered a left ventricular volume of 1.17±0.04 cm3. For the same compound, the “viable left ventricular tissue volume” value in data set [3] (early stage MI (two days post surgery)) stood at 0.94±0.01 cm3. Moreover, in data set [3] (late stage MI (four weeks post surgery)), the “viable left ventricular tissue volume” value is listed as 1.18±0.04 cm3. Further, in data set [4] (in vivo), the “Diagnostic certainty of interpretation (% of cases with definitely abnormal/normal interpretation)” value was found to be 92.0% and the “area under the ROC curve for overall diagnosis of CAD” value was 0.79±0.05. The “% of images rated as either excellent or good” value in data set [4] (rest images) is 96.8%. Further, the “% of images rated as either excellent or good” value in data set [4] (stress images) was determined as 99.2%. Besides, the “Retained Activity in syringe part” value in data set [5] (Barrel) was 6.9% and 5.5% and 7.0%. The “Retained Activity in syringe part” value in data set [5] (Plunger (butyl rubber tip)) was 30.9% and 27.7% and 21.8%.
